{"source": "ChEMBL document CHEMBL6083286", "about": "“Discovery of ERD-12310A as an Exceptionally Potent and Orally Efficacious PROTAC Degrader of Estrogen Receptor α (ERα)” (J Med Chem, 2024)", "key": {"[1]": {"test_system": "T47D", "assay": "PROTAC activity at CRBN/ ERalpha Y537S mutant in human T47D cells assessed as reduction in ERalpha protein level at 10 to 100 nM measured at 7 hrs by Western blot analysis", "type": "cell-based", "design": "scale not given: the % may be the effect or the level left", "conditions": "dose 10-100 nM"}, "[2]": {"assay": "Drug concentration in SCID mouse plasma at 10 mg/kg, po administered daily for 3 days and measured after 6 hrs by LC-MS/MS analysis", "type": "ADME, organism-based"}, "[3]": {"test_system": "MCF7", "assay": "Antitumor activity against human MCF7 cells xenografted in SCID mouse assessed as tumor growth inhibition at 30 mg/kg, po administered for 5 weeks and measured on day 81", "type": "functional", "conditions": "MCF7, 1944 h, time 81 day, read-out: TGI"}, "[4]": {"assay": "Drug concentration in SCID mouse tumor at 30 mg/kg, po administered daily for 3 days and measured after 24 hrs by LC-MS/MS analysis", "type": "ADME, organism-based, Neoplasm", "conditions": "read-out: Ct"}, "[5]": {"assay": "Metabolic stability rat liver microsome assessed as half life", "type": "ADME", "conditions": "microsomes"}, "[6]": {"target": "T1, Protein cereblon/Estrogen receptor (Homo sapiens, UniProt P03372+Q96SW2)", "T1 sequence (P03372 whole entry, looked up)": "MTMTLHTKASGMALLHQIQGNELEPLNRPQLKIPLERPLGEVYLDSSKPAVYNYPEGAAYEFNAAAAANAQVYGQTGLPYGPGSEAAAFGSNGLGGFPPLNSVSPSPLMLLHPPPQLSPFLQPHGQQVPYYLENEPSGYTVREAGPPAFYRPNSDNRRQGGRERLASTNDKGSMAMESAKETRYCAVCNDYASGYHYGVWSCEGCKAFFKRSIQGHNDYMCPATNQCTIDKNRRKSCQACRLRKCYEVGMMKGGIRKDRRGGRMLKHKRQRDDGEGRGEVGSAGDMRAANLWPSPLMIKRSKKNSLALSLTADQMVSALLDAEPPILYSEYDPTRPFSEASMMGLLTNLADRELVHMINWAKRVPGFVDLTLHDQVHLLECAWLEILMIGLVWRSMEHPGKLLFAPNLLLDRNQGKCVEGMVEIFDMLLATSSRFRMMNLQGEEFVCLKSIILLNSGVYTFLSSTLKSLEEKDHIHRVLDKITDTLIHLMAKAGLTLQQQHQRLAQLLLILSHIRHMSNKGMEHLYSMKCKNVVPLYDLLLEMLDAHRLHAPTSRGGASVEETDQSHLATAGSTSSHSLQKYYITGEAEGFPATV", "T1 sequence (Q96SW2 whole entry, looked up)": "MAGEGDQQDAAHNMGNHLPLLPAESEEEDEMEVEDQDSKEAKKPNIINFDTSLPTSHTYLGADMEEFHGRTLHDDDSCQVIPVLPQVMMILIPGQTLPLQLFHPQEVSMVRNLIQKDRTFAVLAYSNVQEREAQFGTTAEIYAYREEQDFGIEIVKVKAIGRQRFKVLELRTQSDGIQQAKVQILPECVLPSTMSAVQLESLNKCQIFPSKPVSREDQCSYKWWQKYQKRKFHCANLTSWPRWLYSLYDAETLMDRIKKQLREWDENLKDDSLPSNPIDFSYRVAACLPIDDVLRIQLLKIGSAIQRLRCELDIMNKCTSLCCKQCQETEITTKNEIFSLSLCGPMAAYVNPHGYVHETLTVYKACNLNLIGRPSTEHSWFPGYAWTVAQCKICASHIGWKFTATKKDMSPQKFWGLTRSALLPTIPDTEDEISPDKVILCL", "assay": "PROTAC activity at CRBN/ERalpha in human T47D cells assessed as reduction in ERalpha protein level at 10 nM measured at 4 hrs by Western blot analysis", "type": "cell-based"}, "[7]": {"target": "T2, Cytochrome P450 1A2 (Homo sapiens, UniProt P05177)", "T2 sequence (P05177 whole entry)": "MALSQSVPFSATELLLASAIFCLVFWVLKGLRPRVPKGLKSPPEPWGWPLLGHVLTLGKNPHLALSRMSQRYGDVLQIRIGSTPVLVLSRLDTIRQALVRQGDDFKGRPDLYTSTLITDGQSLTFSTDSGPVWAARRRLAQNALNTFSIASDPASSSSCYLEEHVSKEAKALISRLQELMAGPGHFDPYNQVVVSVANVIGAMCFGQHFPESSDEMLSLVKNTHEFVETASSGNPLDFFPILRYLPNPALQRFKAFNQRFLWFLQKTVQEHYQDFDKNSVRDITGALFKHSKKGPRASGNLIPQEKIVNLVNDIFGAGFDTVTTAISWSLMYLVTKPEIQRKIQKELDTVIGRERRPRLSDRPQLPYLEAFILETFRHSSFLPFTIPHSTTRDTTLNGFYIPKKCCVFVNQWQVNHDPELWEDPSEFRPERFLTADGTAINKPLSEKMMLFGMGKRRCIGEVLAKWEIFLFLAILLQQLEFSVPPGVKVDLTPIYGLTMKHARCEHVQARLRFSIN", "assay": "Inhibition of CYP1A2 in human liver microsomes incubated for 5 mins in presence of NADPH by LC-MS/MS analysis", "type": "ADME, Microsome"}, "[8]": {"assay": "AUC (0 to infinity) in rat at 3 mg/kg, po or 1 mg/kg, iv measured upto 24 hrs by LC-MS/MS analysis", "type": "ADME, organism-based", "conditions": "in vivo"}, "[9]": {"assay": "Plasma protein binding in mouse", "type": "ADME, cell-free"}, "[10]": {"target": "T1, Protein cereblon/Estrogen receptor", "assay": "PROTAC activity at CRBN/ERalpha in human MCF7 cells assessed as reduction in ERalpha protein level at 5 nM measured for 4 hrs in presence of cereblon ligand C1 by Western blot analysis", "type": "cell-based"}, "[11]": {"assay": "Volume of distribution at steady state in dog at 3 mg/kg, po or 1 mg/kg, iv measured upto 24 hrs by LC-MS/MS analysis", "type": "ADME, organism-based, Canis lupus familiaris", "conditions": "in vivo"}, "[12]": {"assay": "Drug concentration in SCID mouse plasma at 30 mg/kg, po administered daily for 3 days and measured after 24 hrs by LC-MS/MS analysis", "type": "ADME, organism-based"}, "[13]": {"target": "Voltage-gated inwardly rectifying potassium channel KCNH2 (Homo sapiens, UniProt Q12809)", "sequence (Q12809 whole entry)": "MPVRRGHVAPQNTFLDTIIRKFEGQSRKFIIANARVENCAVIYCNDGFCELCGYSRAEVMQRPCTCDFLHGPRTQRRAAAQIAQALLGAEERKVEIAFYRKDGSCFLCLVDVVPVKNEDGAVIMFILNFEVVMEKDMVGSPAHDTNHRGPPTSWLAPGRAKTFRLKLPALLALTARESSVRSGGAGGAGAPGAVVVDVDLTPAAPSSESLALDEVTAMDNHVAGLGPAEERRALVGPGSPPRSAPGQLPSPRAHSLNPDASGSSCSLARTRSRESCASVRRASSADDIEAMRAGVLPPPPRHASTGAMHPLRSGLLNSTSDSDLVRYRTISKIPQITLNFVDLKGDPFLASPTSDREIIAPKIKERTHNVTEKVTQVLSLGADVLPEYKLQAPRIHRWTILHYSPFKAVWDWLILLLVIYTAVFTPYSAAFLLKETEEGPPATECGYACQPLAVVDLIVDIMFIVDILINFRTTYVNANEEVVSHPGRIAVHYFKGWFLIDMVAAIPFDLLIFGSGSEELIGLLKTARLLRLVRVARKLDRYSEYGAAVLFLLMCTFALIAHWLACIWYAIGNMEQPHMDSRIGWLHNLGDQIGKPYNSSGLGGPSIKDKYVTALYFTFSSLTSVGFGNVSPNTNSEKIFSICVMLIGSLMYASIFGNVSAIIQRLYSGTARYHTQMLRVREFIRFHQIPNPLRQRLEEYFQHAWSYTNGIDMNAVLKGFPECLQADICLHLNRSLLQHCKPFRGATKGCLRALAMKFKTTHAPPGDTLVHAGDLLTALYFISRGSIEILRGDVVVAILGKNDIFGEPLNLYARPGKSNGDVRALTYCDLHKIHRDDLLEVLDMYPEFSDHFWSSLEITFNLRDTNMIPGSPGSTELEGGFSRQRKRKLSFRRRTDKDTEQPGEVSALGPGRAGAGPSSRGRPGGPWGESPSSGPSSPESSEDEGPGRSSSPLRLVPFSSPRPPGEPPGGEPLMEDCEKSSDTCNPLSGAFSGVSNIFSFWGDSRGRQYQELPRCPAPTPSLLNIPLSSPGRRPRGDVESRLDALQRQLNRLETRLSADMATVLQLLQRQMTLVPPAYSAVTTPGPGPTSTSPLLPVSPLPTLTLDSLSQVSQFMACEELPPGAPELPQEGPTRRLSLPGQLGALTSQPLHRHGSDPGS", "assay": "Inhibition of hERG in HEK293 cells at 10 uM by whole-cell patch clamp assay relative to control", "type": "toxicity, cell-based", "conditions": "hek293, 10 µM"}, "[14]": {"assay": "Oral bioavailability in mouse at 3 mg/kg measured upto 24 hrs by LC-MS/MS analysis", "type": "ADME, organism-based", "conditions": "in vivo"}, "[15]": {"assay": "AUC (0 to infinity) in dog at 3 mg/kg, po or 1 mg/kg, iv measured upto 24 hrs by LC-MS/MS analysis", "type": "ADME, organism-based, Canis lupus familiaris", "conditions": "in vivo"}, "[16]": {"target": "T1, Protein cereblon/Estrogen receptor", "assay": "PROTAC activity at CRBN/ERalpha in human MCF7 cells assessed as reduction ER level at 100 nM measured for 5 hrs by Western blot analysis", "type": "cell-based"}, "[17]": {"assay": "Plasma protein binding in human", "type": "ADME, cell-free"}, "[18]": {"target": "T1, Protein cereblon/Estrogen receptor", "assay": "PROTAC activity at CRBN/ERalpha in human MCF7 cells assessed as reduction in ERalpha protein level at 1 nM measured at 4 hrs by Western blot analysis", "type": "cell-based"}, "[19]": {"test_system": "MCF7", "assay": "Antitumor activity against human MCF7 cells xenografted in SCID mouse assessed as tumor growth inhibition at 10 mg/kg, po administered for 41 to 76 days", "type": "functional", "conditions": "time 41-76 day, read-out: TGI"}, "[20]": {"assay": "Cmax in mouse at 3 mg/kg, po or 1 mg/kg, iv measured upto 24 hrs by LC-MS/MS analysis", "type": "ADME, organism-based", "conditions": "in vivo"}, "[21]": {"test_system": "T47D", "assay": "PROTAC activity at CRBN/ ERalpha D538G mutant in human T47D cells assessed as reduction in ERalpha protein level at 10 to 100 nM measured at 7 hrs by Western blot analysis", "type": "cell-based", "design": "scale not given: the % may be the effect or the level left", "conditions": "dose 10-100 nM"}, "[22]": {"target": "T1, Protein cereblon/Estrogen receptor", "assay": "PROTAC activity at CRBN/ERalpha in human MCF7 cells assessed as reduction in ERalpha protein level at 0.3 nM measured at 4 hrs by Western blot analysis", "type": "cell-based"}, "[23]": {"target": "T1, Protein cereblon/Estrogen receptor", "assay": "In-vivo PROTAC activity at CRBN/ERalpha in SCID mouse xenografted with human MCF7 cells assessed as reduction in ERalpha level in tumor at 30 mg/kg, po administered daily for 3 days and measured after 24 hrs by Western blot analysis", "type": "functional, organism-based", "design": "scale not given: the % may be the effect or the level left", "conditions": "time 96.0 hrs"}, "[24]": {"target": "T1, Protein cereblon/Estrogen receptor", "assay": "PROTAC activity at CRBN/ERalpha in human MCF7 cells assessed as reduction in ERalpha protein level measured after 12 hrs by Western blot analysis relative to control", "type": "cell-based"}, "[25]": {"assay": "Drug concentration in SCID mouse plasma at 10 mg/kg, po administered once daily for 3 days measured after 24 hrs by LC-MS/MS analysis", "type": "ADME, organism-based"}, "[26]": {"assay": "Drug concentration in SCID mouse tumor at 10 mg/kg, po administered once daily for 3 days measured after 24 hrs by LC-MS/MS analysis", "type": "ADME, organism-based, Neoplasm"}}, "note": "Calls of active or inactive are those of the source. The calls are words filed in the database; no cut-off is given here."}
{"smiles": "O=C1CC[C@H](N2Cc3c(ccc4c3OCC43CCN(C[C@@H]4CCC5(CCN(c6ccc([C@@H]7c8ccc(O)cc8CC[C@@H]7c7ccccc7)cc6)CC5)OC4)CC3)C2=O)C(=O)N1", "values": [{"measurement": "Activity", "setting": "[1]", "result": "> 80", "unit": "%"}, {"measurement": "concentration at 78 h", "setting": "[2]", "result": 380, "unit": "ng/mL"}, {"measurement": "inhibition in vivo at 30 mg/kg", "setting": "[3]", "result": 110, "unit": "%"}, {"measurement": "concentration at 96 h", "setting": "[4]", "result": 1090, "unit": "ng/mL"}, {"measurement": "t1/2", "setting": "[5]", "result": "> 1", "unit": "h"}, {"measurement": "Activity", "setting": "[6]", "result": "Active"}, {"measurement": "IC50", "setting": "[7]", "result": "> 10", "unit": "µM"}, {"measurement": "AUC", "setting": "[8]", "result": 583, "unit": "ng·h/mL"}, {"measurement": "PPB", "setting": "[9]", "result": 99, "unit": "%"}, {"measurement": "Activity", "setting": "[10]", "result": "inactive"}, {"measurement": "Vdss", "setting": "[11]", "result": 3.2, "unit": "L/kg"}, {"measurement": "concentration at 96 h", "setting": "[12]", "result": 50, "unit": "ng/mL"}, {"measurement": "inhibition (INH)", "setting": "[13]", "result": 43.7, "unit": "%"}, {"measurement": "F", "setting": "[14]", "result": 37, "unit": "%"}, {"measurement": "AUC(0-inf)", "setting": "[15]", "result": 15500, "unit": "ng·h/mL"}, {"measurement": "Activity", "setting": "[16]", "result": "No effect"}, {"measurement": "PPB", "setting": "[17]", "result": 98.9, "unit": "%"}, {"measurement": "Activity", "setting": "[18]", "result": "Active"}, {"measurement": "inhibition in vivo at 10 mg/kg", "setting": "[19]", "result": 94, "unit": "%"}, {"measurement": "Cmax", "setting": "[20]", "result": 58.6, "unit": "ng/mL"}, {"measurement": "Activity", "setting": "[21]", "result": "> 80", "unit": "%"}, {"measurement": "Activity", "setting": "[22]", "result": "Active"}, {"measurement": "Activity", "setting": "[23]", "result": 29, "unit": "%"}, {"measurement": "Emax", "setting": "[24]", "result": 103, "unit": "%"}, {"measurement": "concentration at 96 h", "setting": "[25]", "result": 18, "unit": "ng/mL"}, {"measurement": "concentration at 96 h", "setting": "[26]", "result": 294, "unit": "ng/mL"}]}
